# Assay results from patent US10350206B2, “Benzyl substituted indazoles as BUB1 inhibitors” (Bayer Pharma Aktiengesellschaft, priority 2014, dated 2019).
# Where a name gives a salt, the structure may show the parent alone. Read-outs that look alike come from different tables or passages of the source.
# What was measured:
# [1] = Stability in buffer at various pH values (HPLC detection); format: physicochemical; settings: 37° C., remaining prodrug; for Stability pH 4: % Test Compound after 4 h [F(t = 4 h) × 100/F(t = 0 h)]: pH 4 buffer; for Stability pH 7.4: % Test Compound after 4 h [F(t = 4 h) × 100/F(t = 0 h)]: pH 7.4 buffer
# Description: Stability in Buffer at Various pH Values (HPLC Detection)
# 0.3 mg of the test compound was solved in 0.1 ml dimethylsulfoxide and 0.4 ml acetonitrile. For complete dissolution the HPLC vial with the sample solution was sonified for about 20 seconds. Then 1.0 ml of the respective buffer solution was added and the sample was again treated in the ultrasonic bath.
# • pH 4.0: Fluka buffer, Order No. 33643 (11.76 g citric acid, 2.57 g sodium chloride and 2.72 g sodium hydroxide) • pH 7.4: 90 g of sodium chloride, 13.61 g of potassium dihydrogen phosphate and 83.35 g of 1 M sodium hydroxide solution were made up to 1 L with Millipore water and then diluted 1:10. • 10 μl portions of the sample solution were analysed by HPLC at different times (0 h, 1 h, 2h, 4h and 24h) at 37° C. The peak areas in percentage were used for quantification. HPLC Method: • Agilent 1100 with DAD (G1315B), binary pump (G1312A), autosampler (G1329A), column oven (G1316A), thermostat (G1330B); column: Kromasil 100 C18, 250 mm×4 mm, 5 μm; column temperature: 37° C.; eluent A: water+5 ml of perchloric acid/litre, eluent B: acetonitrile. Gradient: • 0 min 98% A, 2% B→0-3.0 min 85% A, 15% B→3.0-8.0 min 50% A, 50% B→8.0-16.0 min 50% A, 50% B→16.0-20.0 min 10% A, 90% B→20.0-21.0 10% A, 90% B→21.0-24.0 min 98% A, 2% B→24.0-25.0 min 98% A, 2% B; flow rate: 1.5 ml/min; UV detection: 210 nm.
# The ratios of the peak area (F) at different times in relation to the peak area at the starting point are shown in Table 3 for representative examples: […]
# [2] = biological target: T1, catalytic domain of human Bub1 (amino acids 704-1085) (Homo sapiens, UniProt O43683); test: Equilibrium probe competition assay (TR-FRET kinase binding assay); settings: read-out: Assay 5 IC50
# T1 construct: catalytic domain of human Bub1 (amino acids 704-1085); His6 (N); made in house; host or cells: Hi5 insect cells
# Description: The half-life of prodrugs (Table 3) poses a challenge for the verification of their biological activity. The Bub1 enzymatic activity assay (as per Biological Assay 1.0 infra) requires a minimum reaction time of 60 minutes in order to be able to assess the inhibitory activity of the compounds. During this time typically 20% to 60% of the prodrugs have been already converted to their corresponding drugs at the pH of 7.5 at which the assay is performed. Ideally one would perform the biological assay at a pH at which the prodrug is stable (e.g. pH 4). […] Alternatively, an assay requiring shorter incubation times would better estimate the binding affinities of the prodrugs. […] Extrapolating the stability data from Tables 3 and 4, one would expect at this time point most of the compound present in the test solution to be the prodrug.
# FIGS. 1 and 2 combine the results from Biological Assay 5 with those from Biological Assay 6. The binding affinities over time of drug and prodrug pairs are shown as pIC50 together with the prodrug stability, and the pIC50 to be expected if only the drug present in the sample was responsible for the activity in the assay. Extrapolating the pIC50 from these graphs to time 0 (at which 100% of prodrug is present in the sample), the actual affinity of the drug and prodrug can be inferred. Secondly, looking at the differences between expected and real pIC50 an estimate can be made about the contribution of the prodrug to the observed activity.
# Biological Assay 5.0: Equilibrium Probe Competition Assay:
# Bub1 binding affinity of compounds described in the present invention were quantified using a time-resolved fluorescence energy transfer (TR-FRET) kinase binding assay which measures displacement of the synthetic fluorescent probe 5-[({2-[2-({2-[1-(4-ethoxy-2,6-difluorobenzyl)-1H-indazol-3-yl]-4-(pyridin-4-ylamino)pyrimidin-5-yl}oxy)ethoxy]ethyl}carbamothioyl)amino]-2-(6-hydroxy-3-oxo-3H-xanthen-9-yl)benzoic acid (6-5-1) by the (recombinant) catalytic domain of human Bub1 (amino acids 704-1085). The enzyme was expressed in Hi5 insect cells with N-terminal 6×His/AviTag® sequences, purified by affinity- (Ni-NTA) and size exclusion chromatography and site-specific biotinylated ex-vivo using a commercially available kit (Avidity).
# In a typical assay 11 different concentrations of each compound (0.1 nM, 0.33 nM, 1.1 nM, 3.8 nM, 13 nM, 44 nM, 0.15 μM, 0.51 μM, 1.7 μM, 5.9 μM and 20 μM) were tested in duplicate within the same microtiter plate. To this end, 100-fold concentrated compound solutions (in DMSO) were made by serial dilution (1:3.4) of freshly prepared 2 mM stocks in a clear low volume 384-well source microtiter plate (Greiner Bio-One, Frickenhausen, Germany), from which 50 nl of compounds were transferred into a black low volume test microtiter plate from the same supplier. Subsequently 2 μL of a solution containing biotinylated Bub1 (the final concentration of Bub1 was adjusted depending on the activity of the enzyme lot in order to be within the linear dynamic range of the assay: typically ˜[…] were used) and 1 nM Streptavidin Terbium Cryptate (Cisbio, No. 610SATLB) in aqueous assay buffer [50 mM Tris/HCl pH 7.5, 200 mM potassium chloride (KCl), 1.0 mM dithiothreitol (DTT), 0.1 mM sodium ortho-vanadate, 1% (v/v) glycerol, 0.01% (w/v) bovine serum albumine (BSA), 0.005% (v/v) Triton X-100 (Sigma), were added to the compounds in the test plate and the mixture was incubated for 15 min at 22° C. to allow pre-equilibration of the putative enzyme-inhibitor complexes before the start of the probe competition reaction, which was initiated by the addition of 3 μL 1.67-fold concentrated solution (in assay buffer) of 6-5-1 (final concentration: 1.5 nM). The resulting mixture (5 μL final volume) was incubated at 22° C. during 0, 15, 30, 60, 120, 240 and 1440 min. […]
SMILES,Stability pH 4: % Test Compound after 4 h [F(t = 4 h) × 100/F(t = 0 h)] [1],Stability pH 7.4: % Test Compound after 4 h [F(t = 4 h) × 100/F(t = 0 h)] [1],IC50 ([2]; Time 15 min),IC50 ([2]; Time 30 min),IC50 ([2]; Time 60 min),IC50 ([2]; Time 90 min),IC50 ([2]; Time 120 min),IC50 ([2]; Time 240 min),IC50 ([2]; Time 1440 min)
"COc1cnc(-c2nn(Cc3c(F)cc(OCCOC(=O)[C@H](C)NC(=O)[C@@H](N)CCCCN)cc3F)c3ccccc23)nc1Nc1ccnc(C)c1 [Example 4-1-1, 2-{3,5-difluoro-4-[(3-{5-methoxy-4-[(2-methylpyridin-4-yl)amino]pyrimidin-2-yl}-1 H-indazol-1-yl)methyl]phenoxy}ethyl L-lysyl-L-alaninate, salt with trifluoroacetic acid]",100%,4%,17 nM,10 nM,12 nM,10 nM,7.2 nM,5.8 nM,2.7 nM
"COc1cnc(-c2nn(Cc3c(F)cc(OCCOC(=O)[C@H](C)NC(=O)[C@H](N)CCCCN)cc3F)c3ccccc23)nc1Nc1ccnc(F)c1 [Example 4-1-3, 2-{3,5-difluoro-4-[(3-{4-[(2-fluoropyridin-4-yl)amino]-5-methoxypyrimidin-2-yl}-1H-indazol-1-yl)methyl]phenoxy}ethyl D-lysyl-L-alaninate, salt with trifluoroacetic acid]",100%,0%,–,–,–,–,–,–,–
"COc1cnc(-c2nn(Cc3c(F)cc(OCCOC(=O)[C@H](C)NC(=O)[C@@H](N)CCCCN)cc3F)c3ccccc23)nc1Nc1ccncc1 [Example 6-2-1, 2-[3,5-difluoro-4-({3-[5-methoxy-4-(pyridin-4-ylamino)pyrimidin-2-yl]-1 H-indazol-1-yl}methyl)phenoxy]ethyl L-lysyl-L-alaninate, salt with trifluoroacetic acid, reference compound]",100%,3%,–,–,–,–,–,–,–
"COc1cnccc1Nc1nc(-c2nn(Cc3c(F)cc(OCCOC(=O)[C@H](C)NC(=O)[C@@H](N)CCCCN)cc3F)c3ccccc23)ncc1OC [Example 4-1-2, 2-{3,5-difluoro-4-[(3-{5-methoxy-4-[(3-methoxypyridin-4-yl)amino]pyrimidin-2-yl}-1H-indazol-1-yl)methyl]phenoxy}ethyl L-lysyl-L-alaninate, salt with trifluoroacetic acid]",100%,5%,2.7 nM,2.3 nM,2.2 nM,1.3 nM,1 nM,0.69 nM,0.36 nM
"COc1cnc(-c2nn(Cc3c(F)cc(OCCOC(=O)[C@H](C)NC(=O)[C@@H](N)CCCCN)cc3F)c3ccccc23)nc1Nc1ccnc(F)c1 [Example 4-1-4, 2-{3,5-difluoro-4-[(3-{4-[(2-fluoropyridin-4-yl)amino]-5-methoxypyrimidin-2-yl}-1H-indazol-1-yl)methyl]phenoxy}ethyl L-lysyl-L-alaninate, salt with trifluoroacetic acid]",100%,9%,–,–,–,–,–,–,–
